Our source for the EC50 values is patent US8309734B2 (Hoffmann-La Roche Inc., priority 2008, dated 2012).

For this assay, the target named is T1, human GPBAR1 receptor (Homo sapiens, UniProt Q8TDU6).
T1 construct: expressed in transfected cells
T1 sequence (Q8TDU6 1-330): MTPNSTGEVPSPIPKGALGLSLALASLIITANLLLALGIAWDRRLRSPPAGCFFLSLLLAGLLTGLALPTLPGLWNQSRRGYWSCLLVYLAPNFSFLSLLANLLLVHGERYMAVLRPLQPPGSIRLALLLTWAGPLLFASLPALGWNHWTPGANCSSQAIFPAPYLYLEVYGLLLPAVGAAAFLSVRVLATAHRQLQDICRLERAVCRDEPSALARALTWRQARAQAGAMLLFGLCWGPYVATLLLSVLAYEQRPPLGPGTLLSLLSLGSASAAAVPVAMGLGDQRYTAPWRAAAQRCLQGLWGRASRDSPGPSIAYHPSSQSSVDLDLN
The assay is described as follows: functional cAMP assay in CHO-dhfr(minus) cells expressing human GPBAR1 receptors. The conditions noted are these: cAMP increase (TR-FRET) in CHO-dhfr(minus) cells expressing human GPBAR1; compounds incubated 30 min at 30° C. Type of assay: cell-based. As for the experimental part:
The final clone was verified by DNA sequence analysis. The plasmid was transfected into CHO cells deficient in dihydrofolate reductase activity (CHO-dhfr-) using Lipofectamine plus (Invitrogen). Clones were isolated in limited dilution conditions and identified by activities in the cAMP assay using lithocholic acid as agonist.
The growth medium was exchanged with Krebs Ringer Bicarbonate buffer with 1 mM IBMX and incubated at 30° C. for 30 mM. Compounds were added to a final assay volume of 100 μl and incubated for 30 min at 30° C. […] The time-resolved energy transfer is measured by a TRF reader (Evotec Technologies GmbH, Hamburg Germany), equipped with a ND:YAG laser as excitation source. The plate is measured twice with the excitation at 355 nm and at the emission with a delay of 100 ns and a gate of 100 ns, total exposure time 10s at 730 (bandwith 30 nm) or 645 nm (bandwith 75 nm), respectively.
EC50 values were determined using Activity Base analysis (ID Business Solution, Limited). […] Specificity for GPBAR1 was tested in non-transfected CHO cells in the same assay as above.
(Cyclic AMP is a second messenger, typically raised through Gs and lowered through Gi signalling.)
Consider `CCOC(=O)CCN1CCN(C(=O)c2cc(F)cnc2Oc2cc(Cl)ccc2Cl)c2ccccc21` [Example 156, 3-{4-[2-(2,5-Dichloro-phenoxy)-5-fluoro-pyridine-3-carbonyl]-3,4-dihydro-2H-quinoxalin-1-yl}-propionic acid ethyl ester], for which the EC50 worked out at 841 nM. In the case of `O=C(O)c1ccc(CCc2cc(Cl)c(Oc3ncccc3C(=O)N3CCN(C4CC4)c4ccccc43)cc2Cl)cc1` [Example 170, 4-(2-{2,5-Dichloro-4-[3-(4-cyclopropyl-3,4-dihydro-2H-quinoxaline-1-carbonyl)-pyridin-2-yloxy]-phenyl}-ethyl)-benzoic acid] it was 69 nM; in that of `CN(C(=O)c1ccncc1Oc1cc(Cl)ccc1Cl)c1ccccc1Cl` [Example 94, N-(2-Chloro-phenyl)-3-(2,5-dichloro-phenoxy)-N-methyl-isonicotinamide], 157 nM.

Consider `CN(C(=O)c1ccncc1Oc1ccc(F)c(Cl)c1)c1ccccc1Cl` [Example 107, 3-(3-Chloro-4-fluoro-phenoxy)-N-(2-chloro-phenyl)-N-methyl-isonicotinamide], for which the midpoint of the response, the EC50, lay at 662 nM. This EC50 is about 4.2-fold higher than that of the compound before.

`O=C(c1cccnc1Oc1cc(Cl)ccc1Cl)N1CCSc2ccccc21` [Example 39, [2-(2,5-Dichloro-phenoxy)-pyridin-3-yl]-(2,3-dihydro-benzo[1,4]thiazin-4-yl)-methanone] came in with a concentration for a half-maximal effect (EC50) of 29 nM.

Take `Cc1ccccc1N(C)C(=O)c1ccncc1Oc1cc(Cl)ccc1Cl` [Example 93, 3-(2,5-Dichloro-phenoxy)-N-methyl-N-o-tolyl-isonicotinamide]: the EC50 came out at 57 nM. For the compound `O=C(c1cc(Cl)cnc1Oc1cc(Cl)ccc1Cl)N1CCCc2ccccc21` [Example 27, [5-Chloro-2-(2,5-dichloro-phenoxy)-pyridin-3-yl]-(3,4-dihydro-2H-quinolin-1-yl)-methanone], the concentration for a half-maximal effect (EC50) stood at 145 nM. Against the preceding compound, the EC50 is about 2.5-fold higher. Under `CN(C(=O)c1cccnc1Oc1cc(Cl)ccc1Cl)c1ccccc1N` [Example 134, N-(2-Amino-phenyl)-2-(2,5-dichloro-phenoxy)-N-methyl-nicotinamide] stands 1650 nM. In the case of `O=C(c1cccnc1Oc1cccc(Cl)c1)N1CCCc2ccccc21` [Example 3, [2-(3-Chloro-phenoxy)-pyridin-3-yl]-(3,4-dihydro-2H-quinolin-1-yl)-methanone] it was 192 nM. Under `O=C(c1cccnc1Oc1cc(Cl)c(C#CCO)cc1Cl)N1CCN(C2CC2)c2ccccc21` [Example 164, (4-Cyclopropyl-3,4-dihydro-2H-quinoxalin-1-yl)-{2-[2,5-dichloro-4-(3-hydroxy-prop-1-ynyl)-phenoxy]-pyridin-3-yl}-methanone] stands 36 nM.

Turning to `Cc1cccc(N(C)C(=O)c2cccnc2Oc2cc(Cl)ccc2Cl)c1C` [Example 57, 2-(2,5-Dichloro-phenoxy)-N-(2,3-dimethyl-phenyl)-N-methyl-nicotinamide], the response was half-maximal at 385 nM (EC50). The compound `O=C(O)CN1CCN(C(=O)c2cccnc2Oc2cc(Cl)ccc2Cl)c2ccccc21` [Example 142, {4-[2-(2,5-Dichloro-phenoxy)-pyridine-3-carbonyl]-3,4-dihydro-2H-quinoxalin-1-yl}-acetic acid] returned a half-maximal effective concentration (EC50) of 307 nM. Under `CN(C(=O)c1cccnc1Oc1cc(Cl)ccc1Cl)c1ccccc1-c1ccnn1C` [Example 133, 2-(2,5-Dichloro-phenoxy)-N-methyl-N-[2-(2-methyl-2H-pyrazol-3-yl)-phenyl]-nicotinamide] stands 1970 nM. As for `O=C(c1cccnc1Oc1cc(Cl)ccc1Cl)N1CCN(CC2CC2)c2ccccc21` [Example 138, (4-Cyclopropylmethyl-3,4-dihydro-2H-quinoxalin-1-yl)-[2-(2,5-dichloro-phenoxy)-pyridin-3-yl]-methanone], a half-maximal effect (EC50) was put at 35 nM. Compared with the last compound, the EC50 is about 56-fold lower. In the case of `CCN(C(=O)c1cc(F)cnc1Oc1cc(Cl)ccc1Cl)c1ccccc1` [Example 84, 2-(2,5-Dichloro-phenoxy)-N-ethyl-5-fluoro-N-phenyl-nicotinamide] it was 686 nM. The compound `O=C(c1cccnc1Oc1cc(Cl)ccc1Cl)N1CCCc2cc(Cl)ccc21` [Example 71, (6-Chloro-3,4-dihydro-2H-quinolin-1-yl)-[2-(2,5-dichloro-phenoxy)-pyridin-3-yl]-methanone] gave an EC50 of 436 nM. This EC50 is about 1.6-fold lower than that of the compound before.

Consider `CN(C(=O)c1cccnc1Oc1cc(Cl)ccc1Cl)c1cc(Cl)ccc1Cl` [Example 135, 2-(2,5-Dichloro-phenoxy)-N-(2,5-dichloro-phenyl)-N-methyl-nicotinamide], for which the concentration for a half-maximal effect (EC50) came to 473 nM. With `O=C(c1cc(F)cnc1Oc1ccc(F)c(Cl)c1)N1CCCc2cc(F)c(F)cc21` [Example 87, [2-(3-Chloro-4-fluoro-phenoxy)-5-fluoro-pyridin-3-yl]-(6,7-difluoro-3,4-dihydro-2H-quinolin-1-yl)-methanone], a half-maximal effect (EC50) was put at 75 nM. Under `O=C(c1cc(F)ccc1Oc1cc(Cl)ccc1Cl)N1CCCc2ccccc21` [Example 113, [2-(2,5-Dichloro-phenoxy)-5-fluoro-phenyl]-(3,4-dihydro-2H-quinolin-1-yl)-methanone] stands 149 nM. In the case of `Cc1ccc2c(c1)CCCN2C(=O)c1cccnc1Oc1cccc(Cl)c1` [Example 5, [2-(3-Chloro-phenoxy)-pyridin-3-yl]-(6-methyl-3,4-dihydro-2H-quinolin-1-yl)-methanone] it was 649 nM. In the case of `CC(C)c1cccc(Oc2ncccc2C(=O)N2CCCc3ccccc32)c1` [Example 19, (3,4-Dihydro-2H-quinolin-1-yl)-[2-(3-isopropyl-phenoxy)-pyridin-3-yl]-methanone] it was 625 nM.

Compound `O=C(c1cccnc1Oc1cc(Cl)ccc1Cl)N1CCN(CC2CCC2)c2ccccc21` [Example 139, (4-Cyclobutylmethyl-3,4-dihydro-2H-quinoxalin-1-yl)-[2-(2,5-dichloro-phenoxy)-pyridin-3-yl]-methasone] displayed a concentration for a half-maximal effect (EC50) of 926 nM. This EC50 and that of the compound before are within 1.5-fold of each other. Under `CC1Cc2ccccc2N1C(=O)c1ccccc1Oc1cc(Cl)ccc1Cl` (stereo not shown) [Example 112, [2-(2,5-Dichloro-phenoxy)-phenyl]-(2-methyl-2,3-dihydro-indol-1-yl)-methanone] stands 1710 nM. In the case of `O=C(O)CCc1cc(Cl)c(Oc2ncccc2C(=O)N2CCN(C3CC3)c3ccccc32)cc1Cl` [Example 173, 3-{2,5-Dichloro-4-[3-(4-cyclopropyl-3,4-dihydro-2H-quinoxaline-1-carbonyl)-pyridin-2-yloxy]-phenyl}-propionic acid] it was 47 nM. Consider `CCOC(=O)CCCCN1CCN(C(=O)c2cc(F)cnc2Oc2cc(Cl)ccc2Cl)c2ccccc21` [Example 159, 5-{4-[2-(2,5-Dichloro-phenoxy)-5-fluoro-pyridine-3-carbonyl]-3,4-dihydro-2H-quinoxalin-1-yl}-pentanoic acid ethyl ester], for which the EC50 was found to be 395 nM. Regarding `CN(C(=O)c1ccncc1Oc1ccc(Cl)cc1Cl)c1ccccc1Cl` [Example 100, N-(2-Chloro-phenyl)-3-(2,4-dichloro-phenoxy)-N-methyl-isonicotinamide], a half-maximal response (EC50) required 1050 nM.

Take `COc1ccncc1N(C)C(=O)c1cccnc1Oc1cc(Cl)ccc1Cl` [Example 75, 2-(2,5-Dichloro-phenoxy)-N-(4-methoxy-pyridin-3-yl)-N-methyl-nicotinamide]: the response was half-maximal at 1580 nM (EC50).

Regarding `CN(C(=O)c1cccnc1Oc1cc(Cl)ccc1Cl)c1ccccc1Cl` [Example 40, N-(2-Chloro-phenyl)-2-(2,5-dichloro-phenoxy)-N-methyl-nicotinamide], a half-maximal response (EC50) required 103 nM.

The EC50 is the concentration that produces a half-maximal response.
